Key:
[1] = biological target: T1, rod CNG channels (CNGA1:CNGB1a) (Bos taurus, UniProt Q00194+Q28181); experiment: Patch-clamp on inside-out patches, heterotetrameric rod CNG channels expressed in Xenopus laevis oocytes; type: cell-based, bovine; details: for effect on cGMP-activated rod CNG-channel activity: analogue(s) co-applied with cGMP (50 µM; combination 50 µM inhibitor + activator); for efficacy in activating rod CNG channels compared to cGMP: related to maximal cGMP-induced current
T1 construct: expressed in transfected cells; host or cells: Xenopus laevis oocytes (cRNA injection, pGEMHE vector); inside-out patches
T1 sequence (Q00194 whole entry): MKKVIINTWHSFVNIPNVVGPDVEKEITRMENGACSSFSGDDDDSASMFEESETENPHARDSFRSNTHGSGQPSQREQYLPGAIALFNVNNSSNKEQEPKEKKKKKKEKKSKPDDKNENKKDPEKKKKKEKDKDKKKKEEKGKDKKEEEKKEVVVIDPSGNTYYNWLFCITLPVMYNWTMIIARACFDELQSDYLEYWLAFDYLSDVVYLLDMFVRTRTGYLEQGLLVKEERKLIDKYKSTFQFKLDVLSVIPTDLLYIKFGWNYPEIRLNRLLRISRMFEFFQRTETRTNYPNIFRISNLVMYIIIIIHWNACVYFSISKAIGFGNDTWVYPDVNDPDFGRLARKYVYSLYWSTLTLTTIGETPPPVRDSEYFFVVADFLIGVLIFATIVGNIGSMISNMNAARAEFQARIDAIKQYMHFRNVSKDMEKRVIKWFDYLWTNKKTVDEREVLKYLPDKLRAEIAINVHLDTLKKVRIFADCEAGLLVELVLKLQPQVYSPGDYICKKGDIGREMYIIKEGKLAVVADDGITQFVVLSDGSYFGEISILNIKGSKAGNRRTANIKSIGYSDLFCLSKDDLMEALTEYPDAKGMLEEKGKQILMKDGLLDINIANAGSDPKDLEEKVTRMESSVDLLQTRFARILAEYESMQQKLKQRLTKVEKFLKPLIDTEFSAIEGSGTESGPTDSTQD
T1 sequence (Q28181 whole entry): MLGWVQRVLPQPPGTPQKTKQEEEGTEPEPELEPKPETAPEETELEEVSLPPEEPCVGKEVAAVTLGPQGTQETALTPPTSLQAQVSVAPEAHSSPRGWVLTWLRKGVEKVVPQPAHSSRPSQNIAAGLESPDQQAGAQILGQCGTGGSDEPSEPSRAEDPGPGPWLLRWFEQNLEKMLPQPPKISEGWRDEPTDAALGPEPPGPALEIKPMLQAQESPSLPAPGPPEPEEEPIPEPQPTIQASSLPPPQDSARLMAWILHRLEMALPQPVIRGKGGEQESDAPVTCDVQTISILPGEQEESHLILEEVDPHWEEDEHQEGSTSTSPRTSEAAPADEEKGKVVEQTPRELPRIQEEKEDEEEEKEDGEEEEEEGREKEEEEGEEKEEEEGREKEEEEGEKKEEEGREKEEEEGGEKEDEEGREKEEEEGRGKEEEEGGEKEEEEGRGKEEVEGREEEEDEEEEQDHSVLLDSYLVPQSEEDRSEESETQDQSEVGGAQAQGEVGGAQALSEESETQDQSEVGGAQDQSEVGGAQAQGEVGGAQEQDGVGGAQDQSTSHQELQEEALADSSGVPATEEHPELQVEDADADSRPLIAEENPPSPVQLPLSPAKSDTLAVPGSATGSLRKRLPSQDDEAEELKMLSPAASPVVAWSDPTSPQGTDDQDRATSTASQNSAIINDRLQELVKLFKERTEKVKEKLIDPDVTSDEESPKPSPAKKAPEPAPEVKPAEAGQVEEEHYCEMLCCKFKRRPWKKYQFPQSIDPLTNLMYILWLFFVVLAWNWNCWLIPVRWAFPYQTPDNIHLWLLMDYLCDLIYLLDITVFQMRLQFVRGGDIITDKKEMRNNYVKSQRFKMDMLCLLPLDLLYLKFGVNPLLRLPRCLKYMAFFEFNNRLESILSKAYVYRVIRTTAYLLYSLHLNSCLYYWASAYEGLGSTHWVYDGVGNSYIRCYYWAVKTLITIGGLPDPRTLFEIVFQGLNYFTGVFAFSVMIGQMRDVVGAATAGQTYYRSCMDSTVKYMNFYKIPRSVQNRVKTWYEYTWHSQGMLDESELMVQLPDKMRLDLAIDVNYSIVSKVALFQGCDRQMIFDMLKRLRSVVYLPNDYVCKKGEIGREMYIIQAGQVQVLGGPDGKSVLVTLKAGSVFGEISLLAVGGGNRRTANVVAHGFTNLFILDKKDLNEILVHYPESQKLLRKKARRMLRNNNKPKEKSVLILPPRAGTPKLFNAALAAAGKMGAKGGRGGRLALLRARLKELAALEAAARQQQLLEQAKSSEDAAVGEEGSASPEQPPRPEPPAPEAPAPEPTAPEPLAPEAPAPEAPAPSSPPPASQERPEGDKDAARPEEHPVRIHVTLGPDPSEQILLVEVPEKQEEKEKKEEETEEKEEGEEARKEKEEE
Excerpt: The patch pipettes were pulled from borosilicate glass tubing (outer diameter 2.0 mm, inner diameter 1.0 mm; Hilgenberg GmbH, Malsfeld, Germany). The initial resistance of the solution-filled pipettes was 0.6–1.4 MΩ. […] For studying the activation and deactivation kinetics of CNG channels, we performed fast jumps between different ligand concentrations by means of a double-barreled θ-glass pipette mounted on a piezo-driven device, which was controlled by the computer. For measuring the time courses, the recording rate was 20 kHz. […]

[2] = biological target: T2, cone CNG channels (CNGA3:CNGB3) (Homo sapiens, UniProt Q16281+Q9NQW8); experiment: Patch-clamp on inside-out patches, heterotetrameric cone CNG channels expressed in Xenopus laevis oocytes; type: cell-based; details: for effect on cGMP-activated cone CNG-channel activity: analogue(s) co-applied with cGMP (50 µM; combination 50 µM inhibitor + activator); for EC50: concentration-activation relationship, Hill fit, read-out: EC50, cone CNG channels; for efficacy in activating cone CNG channels compared to cGMP: related to maximal cGMP-induced current
T2 construct: expressed in transfected cells; host or cells: Xenopus laevis oocytes (cRNA injection, pGEMHE vector); inside-out patches
T2 sequence (Q16281 1-694): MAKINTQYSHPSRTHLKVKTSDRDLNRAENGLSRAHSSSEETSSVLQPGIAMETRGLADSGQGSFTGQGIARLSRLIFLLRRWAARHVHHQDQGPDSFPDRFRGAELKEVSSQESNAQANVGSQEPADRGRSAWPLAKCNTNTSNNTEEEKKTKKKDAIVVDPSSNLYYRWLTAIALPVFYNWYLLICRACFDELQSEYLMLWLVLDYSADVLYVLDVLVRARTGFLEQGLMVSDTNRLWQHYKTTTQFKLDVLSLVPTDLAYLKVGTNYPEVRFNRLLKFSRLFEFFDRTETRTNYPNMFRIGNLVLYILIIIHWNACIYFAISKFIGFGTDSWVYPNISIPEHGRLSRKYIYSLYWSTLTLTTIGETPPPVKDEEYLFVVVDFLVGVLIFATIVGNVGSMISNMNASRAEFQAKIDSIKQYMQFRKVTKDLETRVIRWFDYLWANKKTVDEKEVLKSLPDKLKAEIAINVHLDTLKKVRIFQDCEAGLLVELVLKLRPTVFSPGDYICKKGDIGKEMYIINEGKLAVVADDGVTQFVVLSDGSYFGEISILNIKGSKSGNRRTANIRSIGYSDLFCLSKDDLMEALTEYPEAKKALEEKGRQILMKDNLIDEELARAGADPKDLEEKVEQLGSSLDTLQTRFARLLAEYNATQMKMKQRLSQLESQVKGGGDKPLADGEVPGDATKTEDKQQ
T2 sequence (Q9NQW8 1-809): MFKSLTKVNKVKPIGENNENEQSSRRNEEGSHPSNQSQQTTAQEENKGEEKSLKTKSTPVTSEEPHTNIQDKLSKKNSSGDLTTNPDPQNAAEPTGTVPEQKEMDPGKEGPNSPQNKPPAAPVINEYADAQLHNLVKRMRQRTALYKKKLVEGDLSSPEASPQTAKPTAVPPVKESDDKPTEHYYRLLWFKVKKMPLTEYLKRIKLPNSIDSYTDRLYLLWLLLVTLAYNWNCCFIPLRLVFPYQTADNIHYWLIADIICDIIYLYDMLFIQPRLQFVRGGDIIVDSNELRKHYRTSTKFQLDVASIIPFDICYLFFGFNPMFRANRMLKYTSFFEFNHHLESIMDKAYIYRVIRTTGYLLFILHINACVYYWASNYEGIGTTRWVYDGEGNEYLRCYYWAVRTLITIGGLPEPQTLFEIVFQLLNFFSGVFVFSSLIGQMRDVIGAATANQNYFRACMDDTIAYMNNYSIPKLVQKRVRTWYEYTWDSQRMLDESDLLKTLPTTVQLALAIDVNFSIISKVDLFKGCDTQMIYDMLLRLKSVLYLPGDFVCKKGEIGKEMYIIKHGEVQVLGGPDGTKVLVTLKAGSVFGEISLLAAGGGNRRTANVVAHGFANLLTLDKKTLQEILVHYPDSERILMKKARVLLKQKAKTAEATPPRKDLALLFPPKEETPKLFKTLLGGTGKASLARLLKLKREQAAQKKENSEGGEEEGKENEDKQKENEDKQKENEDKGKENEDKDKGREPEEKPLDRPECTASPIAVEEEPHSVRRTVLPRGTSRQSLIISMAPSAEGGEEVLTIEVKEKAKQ
Excerpt: The patch pipettes were pulled from borosilicate glass tubing (outer diameter 2.0 mm, inner diameter 1.0 mm; Hilgenberg GmbH, Malsfeld, Germany). The initial resistance of the solution-filled pipettes was 0.6–1.4 MΩ. […] For studying the activation and deactivation kinetics of CNG channels, we performed fast jumps between different ligand concentrations by means of a double-barreled θ-glass pipette mounted on a piezo-driven device, which was controlled by the computer. For measuring the time courses, the recording rate was 20 kHz.
The activation and deactivation time courses were determined by fitting the respective current traces with single exponentials:(3) I(t)=A∗exp[−t/τ] where A is the amplitude, t the time, and τ the time constant for either activation or deactivation.

CNG-channel in rods = tested on: CNG-channel in rods; set-up: method as in PMID 8778280; details: previous study, ref [44]; cited from earlier work
[3] = 100 µM, +100 mV, activity triggered by 3 mM cGMP
[4] = cGMP + 50 µM of the cGMP analogue

Compound | H (Hill coefficient), rod CNG channels [1, 4] | effect on cGMP-activated cone CNG-channel activity [2] | H (Hill coefficient), cone CNG channels [2, 4] | efficacy in activating rod CNG channels compared to cGMP ([1]; +100 mV) | efficacy in activating cone CNG channels compared to cGMP ([2]; +100 mV) | further results
COc1ccc([C@H]2Sc3ccccc3N(CCN(C)C)C(=O)[C@H]2OC(C)=O)cc1 (relative stereo) [L-cis-diltiazem, reference compound] |  |  |  |  |  | block of rod CNG channel activity [1, 3]: ~ 90.5%; block of cone CNG channel activity [2, 3]: ~ 63.4%
O=c1c2nc(Br)n([C@@H]3O[C@@H]4COP(=O)(O)O[C@H]4[C@H]3O)c2nc2[nH]c(-c3ccccc3)cn12 [8-Br-PET-cGMP] | 1.05 | under physiological cGMP it produced a potentiation of retinal CNG-channel activity, whereas at higher cGMP it caused minor inhibition | 1.5 |  |  | effect on cGMP-activated rod CNG-channel activity [1]: under physiological cGMP it produced a potentiation of retinal CNG-channel activity, whereas at higher cGMP it caused minor inhibition; Emax ([1]; read-out: efficacy of activating rod channel, of maximal activation): < 1%
Nc1nc2c(nc(Br)n2[C@@H]2O[C@@H]3COP(=O)(O)O[C@H]3[C@H]2O)c(=O)[nH]1 [8-Br-cGMP] |  |  |  |  |  | H (Hill coefficient), rod CNG channels ([1]; ligand alone): 2.1; EC50 ([1]; ligand alone, concentration-activation relationship, Hill fit, read-out: EC50, rod CNG channels): 6.61 µM; H (Hill coefficient), cone CNG channels ([2]; ligand alone): 1.94; EC50 ([2]; ligand alone): 1.05 µM
O=c1c2ncn([C@@H]3O[C@@H]4COP(=O)(O)O[C@H]4[C@H]3O)c2nc2[nH]c(-c3ccccc3)cn12 [PET-cGMP] |  |  |  | partial agonist | partial agonist | 
O=c1c2nc(Br)n([C@@H]3O[C@@H]4CO[P@@](=O)(S)O[C@H]4[C@H]3O)c2nc2[nH]c(-c3ccc4ccccc4c3)cn12 [Rp-8-Br-(2-N)ET-cGMPS] | 1.66 |  | 1.53 | lower efficacy than cGMP | lower efficacy than cGMP | 
Nc1nc2c(nc(Sc3ccc(Cl)cc3)n2[C@@H]2O[C@@H]3CO[P@@](=O)(S)O[C@H]3[C@H]2O)c(=O)[nH]1 [Rp-8-pCPT-cGMPS] | 1.23 | their activity at physiological cGMP increased, and at higher cGMP levels decreased | 1.04 | drastically reduced the efficacy | drastically reduced the efficacy | effect on cGMP-activated rod CNG-channel activity [1]: their activity at physiological cGMP increased, and at higher cGMP levels decreased; maximal CNG-channel activation in rods (CNG-channel in rods): ~ 93%
O=c1c2ncn([C@@H]3O[C@@H]4CO[P@@](=O)(S)O[C@H]4[C@H]3O)c2nc2[nH]c(-c3ccc4ccccc4c3)cn12 [Rp-(2-N)ET-cGMPS] | 1.68 |  | 1.84 | lower efficacy than cGMP | lower efficacy than cGMP | 
Nc1nc2c(ncn2[C@@H]2O[C@@H]3CO[P@@](=O)(S)O[C@H]3[C@H]2O)c(=O)[nH]1 [Rp-cGMPS] | 1.52 | did not influence the activity of cone channels | 1.13 | lower efficacy than cGMP | lower efficacy than cGMP | 
O=C1Cn2c(nc3c(nc(Br)n3[C@@H]3O[C@@H]4CO[P@@](=O)(S)O[C@H]4[C@H]3O)c2=O)N1 [Rp-ß-1,N2-Ac-Br-cGMPS, Rp-ß-1,N^2-Ac-Br-cGMPS] | 2.06 | did not influence the activity of cone channels | 1.64 | lower efficacy than cGMP | lower efficacy than cGMP | 
Nc1nc2c(ncn2[C@@H]2O[C@@H]3COP(=O)(O)O[C@H]3[C@H]2O)c(=O)[nH]1 [cGMP, reference compound] |  |  |  |  |  | H (Hill coefficient), rod CNG channels ([1]; ligand alone): 2.1; deactivation time constant τdeact, cone CNG channels ([2]; 5 µM cGMP alone or 5 µM cGMP + 50 µM inhibitor + 0.1 µM activator, concentration jump): 80.6 ± 4.6 ms; H (Hill coefficient), cone CNG channels ([2]; ligand alone): 1.47; EC50 ([2]; ligand alone): 11.1 µM

Source: PMC9612005 (Pharmaceutics, 2022)
